The NIST ThermoML archive (doi:10.1021/je600519p)
± gives the expanded uncertainty stated by the source.

Columns and labels:
[1] = refractive index (Na D-line) (dimensionless); conditions: 293.15 K; 101.33 kPa; Liquid
[2] = 293.15 K; 101.33 kPa; Liquid

refractive index [1]	mass density [2] [kg/m3]	SMILES
1.5336 ± 0.0013	1027.93 ± 0.46	CC(=O)c1ccccc1 [acetophenone]
1.4178 ± 0.0013	818.84 ± 0.75	CCCCCCO [hexan-1-ol]
1.3845 ± 0.0012	974.65 ± 0.29	CCOC(=O)OCC [diethyl carbonate]
